The numbers were not newly measured in paper PMC11133798, “Vosoritide treatment for children with hypochondroplasia: a phase 2 trial” (eClinicalMedicine, 2024), which cites them from elsewhere.

No end group written: not given here.

One data set has as its system L613V/+ mice. Particulars: by 2 weeks of treatment; catch up began after 1 week; ref 26 (protocol list); cited from earlier work. From the text: They then proceeded to give these mice a MEK inhibitor.
In data set [1] the test system is rat chondrosarcoma cell lines, NPR2 homozygous knock out. Particulars: ref 23 (protocol list); cited from earlier work. The source says: (§1) Our group identified pathogenic mutations in NPR2 in ~2% of ~400 patients presenting with short stature 22. The degree of short stature ...
In data set [2] the test system is rat chondrosarcoma cell lines, NPR2 heterozygous knock out. The conditions noted are these: ref 23 (protocol list); cited from earlier work.
Text: as §1

The test system of data set [3] is mice deficient in Nf1 in type II collagen producing cells. The conditions noted are these: daily injections of CNP; ref 27 (protocol list); cited from earlier work.
A further data set deals with rat chondrosarcoma cells. The conditions noted are these: CNP treatment; ref 36 (protocol list); cited from earlier work. From the text:
Individuals with heterozygous defects in Aggrecan present with dominantly inherited short stature often with advanced bone ages and premature growth cessation 32,33.

In data set [4] the test system is mouse model with Braf mutation (p.Q241R). The conditions noted are these: CNP administration; ref 28 (protocol list); cited from earlier work.
Data set [5] has as its system children with hypochondroplasia. Particulars: cited from earlier work. From the text: As there are no currently approved medications for hypochondroplasia, recombinant human growth hormone (rhGH) has been used off-label in patients with hypochondroplasia with variable efficacy. To date, there are no controlled trials of rhGH in children with hypochondroplasia. […] However, growth velocity slowed substantially after the first year resulting in a total increase in height ...

Setting [6] is: meta-analysis of 7 studies, 113 children with hypochondroplasia.

As to `O=C(NOC[C@H](O)CO)c1ccc(F)c(F)c1Nc1ccc(I)cc1F` [PD0325901], the Body length result with L613V/+ mice is “the same length as untreated WT mice”.

As for “CNP: endogenous C-type natriuretic peptide, ligand of NPR-B (GLSKGCFGLKLDRIGSMSGLGC; ends and bridges not checked; cysteine pairing not given here; UniProt P23582 105-126, looked up)”, in data set [1], the “cGMP response to CNP” value was “absolutely no”. Also, the “CNP concentration generating cGMP sufficient to activate downstream protein kinase G signaling” value in data set [2] is listed as more than 0.163 nM. Moreover, the “ERK phosphorylation and stature” value in data set [3] is “decreased ERK phosphorylation and corrected the short stature”. Also, the “Extracellular matrix after FGF2 administration” value in the data set with rat chondrosarcoma cells is “rescue the loss of extracellular matrix”. For the same molecule, in data set [4], the Body length result is “increases in body length”.

As to “rhGH: recombinant human growth hormone used off-label in hypochondroplasia”, the Body disproportion entry in data set [5] (higher dose of rhGH, after three years of treatment) is “significant worsening of body disproportion”. In data set [5] (setting [6]), the “Mean first year increase in height SDS” value was 0.41 SD and the “Total increase in height after 3 years” value is recorded as 0.61 SD.
